Test results as given in patent US8901317B2, “Tryptamine derivatives, their preparation and their use in gastropathy” (Council of Scientific & Industrial Research, priority 2010, dated 2014).

Columns and labels:
[1] = DPPH free radical scavenging assay
Procedure: The antioxidant property of different tryptamine derivatives were assessed and compared with the known antioxidants for potency. A range of different synthesized compounds and known anti oxidants, quercetin, ascorbic acid and gallic acid were analyzed by the FRAP assay. The FRAP assay is based on the measurement of the ability of the substance to reduce Fe^3+ to Fe^2+, greater the reducing ability greater the anti oxidant property. Antioxidants reduce Fe^3+-TPTZ in to blue colored Fe^2+-TPTZ complex, which results in an increase in the absorbance at 595 nm giving a FRAP value. […] Absorbance changes at different time intervals (FIG. 6) as well as at different concentrations (FIG. 7) at time 6 min in the presence of different compounds at 595 nm were measured. FRAP values at 6 min and 65 min were calculated from different tryptamine derivatives and some known antioxidant (Table 1). […] DPPH assay based on the DPPH free radicals scavenging power of the antioxidant molecules. Higher the scavenging power higher will be the antioxidant property. […] This assay was performed in presence of some known antioxidants such as ascorbic acid, quercetin and gallic acid.
2,2-Diphenyl-1-Picrylhydrazyl (DPPH) is a stable free radical that can accept hydrogen radical or an electron and become a stable diamagnetic molecule. The antioxidants can scavenge the DPPH by donating hydrogen as visualized by discoloration of the DPPH radical from purple to yellow (Pal, C; et al. Free Radic Biol Med, 49(2), 258-267; 2010, Ben Farhat, M.; et al. J. Agric. Food Chem. 57:10349-10356; 2009, Han, J; et al. Wei Sheng Yan Jiu 38:596-598; 2009). The assay system contained 1 mL of compounds under investigation dissolved (in methanol, some compound dissolved in water) at different concentrations in the range 10-100 μM solution and 4 ml of DPPH (0.15 mM) in methanol (80% in water v/v) and mixed well. It was allowed to stand for 30 min at 27° C. away from light. Ascorbic acid at the same concentration was taken as positive control. The absorbance of the solution was measured spectrophotometrically at 517 nm and from the decrease of absorption; the antioxidant activity of different tryptamine derivatives were determined.

rats = experiment: Toxicity (death) after injection in rats; assay type: in vivo; settings: conclusion from in vivo experiments
[2] = system: NSAIDs-induced mitochondrial oxidative stress; experiment: Mitochondrial oxidative stress in gastric mucosa (protein carbonyl, lipid peroxidation, total thiol); assay type: in vivo, rats; settings: NSAIDs (indomethcin, diclofenac)-induced; pretreatment
Procedure: Commercially available kit (Biochain) was used for the isolation of mitochondria from gastric mucosal cells. In brief, scrapped gastric mucosa was finely minced on ice in a petridish containing mitochondria extraction buffer. Ultra-Turrax T-25 homogenizer was used to homogenize the cells. To remove nuclei and unbroken cells the homogenate was first centrifuged at 800×g for 10 min and then finally subjected to 12000×g for 15 min to get the mitochondrial fraction.
Mitochondrial oxidative stress was performed earlier through measurement protein carbonyl formation, lipid peroxidation and measurement of total thiol content (Pal, C; et al. Free Radic Biol Med, 49(2), 258-267; 2010, Maity, P.; et al. J. Biol. Chem. 284:3058-3068; 2009, Maity, P.; et al. J. Biol. Chem. 283:14391-14401; 2008, Maity, P.; et al. J. Pineal Res. 46:314-323; 2009).
Mitochondrial oxidative stress was studied earlier through the measurement of mitochondrial total thiol depletion, lipid peroxidation and protein carbonyl formation. In brief, thiol content was measured by its reaction with 5-5′-dithionitrobenzoic acid (DTNB) to yield the yellow chromophore of TNB (thionitrobenzoic acid), which was measured at 412 nm Mitochondrial lipid peroxidation was assayed by adding 1 ml of the mitochondrial fraction in 0.9% normal saline to 2 ml of TBA-TCA mixture (0.375% w/v and 15% w/v, respectively) in 0.25 N HCl and was mixed and boiled for 15 min which was then cooled and after centrifugation, the absorbance of the supernatant was read at 535 nm. Tetraethoxypropane was used as standard. Protein carbonyl was measured by following the standard colorimetric method that measures the binding of dinitrophenylhydrazine (DNP) to the carbonyl group and was quantified by taking the absorbance at 362 nm.

caspase-3 = experiment: Caspase-3 activity in gastric mucosal tissue; assay type: in vivo, rats; settings: in dose dependent manner; gastric mucosa
Procedure: From cytosolic fraction of gastric mucosal tissues, caspase-9 and caspse-3 activities were measured using commercially available kit (Biovision, Mountain View, Calif., USA and Sigma respectively). In brief, the gastric mucosa was homogenized in caspase lysis buffer (provided with the respective kit). The homogenate was centrifuged at 16,000×g for 15 min. The supernatant was collected and mixed with 50 μl of 2× reaction buffer (provided with the respective kit). This was followed by addition of the substrates: […] (200 μM final concentration) for caspase-3 and LEHD-pNA (200 μM final concentration) for caspase-9. The mixture was incubated at 37° C. for 1 hr and absorbance was taken at 405 nm (Maity, P.; et al. J. Biol. Chem. 284:3058-3068; 2009, Maity, P.; et al. J. Biol. Chem. 283:14391-14401; 2008, Maity, P.; et al. J. Pineal Res. 46:314-323; 2009).

[3] = system: gastric mucosal primary cultured cells; experiment: Mitochondrial dehydrogenase activity (MTT reduction assay); assay type: cell-based, rat
Procedure: Mitochondrial metabolic function was studied by observing the ability of mitochondrial dehydrogenases to reduce MTT ([3-(4,5-dimethylthiazol-2-yl)-2,5-diphenyl tetrazolium bromide]) into formazan dye (Pal, C; et al. Free Radic Biol Med, 49(2), 258-267; 2010). Equal number of gastric mucosal primary cultured cells were taken (10^6) in each well of a 12 well plate and were divided into three groups control, indomethacin treated (5 mM) and SEGA (50 μM) plus indomethacin (5 mM)-treated. After incubating for 16 hrs, cells were dissociated and centrifuged at 500×g for 5 min and the supernatant was then discarded. Cell pellet was reconstituted in fresh cell culture media. Equal number of cells (10^5 cells) in a final volume of 100 μl cell culture media from each group was then taken in 96 well plates in triplicates. MTT (0.1% final concentration) solution was added to each well of both control and experimental groups, mixed well and incubated for 3 hrs at 37° C. in a CO2 incubator. After the incubation, the culture medium was aspirated carefully and the insoluble formazan crystals at the bottom of the well were solubilized with 100 μl of MTT solubilization solution containing 10% Triton X-100 plus 0.1 N HCl in anhydrous isopropanol. The MTT reduction (absorbance of formazan dye) was measured at 570 nm.

O=C(NCCc1c[nH]c2ccc(O)cc12)c1cc(O)c(O)c(O)c1 [Compound 3a, 3,4,5-trihydroxy-N-(2-(5-hydroxy-1H-indol-3-yl)ethyl)benzamide]
DPPH scavenging power in words ([1]; among all the derivatives): higher scavenging power
Absorbance change (ΔA) at 30 min ([1]; compounds 100 μM, 517 nm (Table 2)): 0.45 ± 0.08
Absorbance change (ΔA) at 30 min ([1]; concentration 10 μM (Table 3)): 0.27 ± 0.03
Absorbance change (ΔA) at 30 min ([1]; concentration 30 μM (Table 3)): 0.34 ± 0.05
Absorbance change (ΔA) at 30 min ([1]; concentration 50 μM (Table 3)): 0.37 ± 0.07
Absorbance change (ΔA) at 30 min ([1]; concentration 80 μM (Table 3)): 0.42 ± 0.07
Absorbance change (ΔA) at 30 min ([1]; concentration 100 μM (Table 3)): 0.45 ± 0.08
antioxidant power compared with ascorbic acid, quercetin and gallic acid ([1]; data not shown): almost equal antioxidant power
toxicity in rats (rats): nontoxic molecule
depletion of mitochondrial thiol [2]: protects
oxidation of mitochondrial protein (protein carbonyl formation) [2]: protects
peroxidation of mitochondrial lipid [2]: protects
indomethacin-induced activation of caspase-3 (caspase-3): prevents indomethacin-induced activation of caspase-3
toxicity as established by MTT reduction assay [3]: non toxic molecule
mitochondrial dehydrogenase activity (MTT reduction) ([3]; SEGA 50 μM plus indomethacin 5 mM, 16 hrs): restores all the NSAIDs-induced mitochondrial dysfuctions
